Measured values taken from PMC10574767, “Extractives from Artemisia afra with Anti-Bacterial and Anti-Fungal Properties” (Plants, 2023).
Values after ≈ are worked out from the molar mass of the structure shown. Read-outs that look alike come from different tables or passages of the source.

How the values were obtained:
[1] = test system: Staphylococcus aureus ATCC 29213; test: Serial dilution microplate MIC; assay type: cell-based; settings: for MIC: Staphylococcus aureus; for Selectivity index S. aureus: in brackets, Vero LC50 vs MIC
Procedure: (§1) The MIC value of the plant extracts and isolated compounds against one fungal and five bacterial strains (Salmonella Typhimurium ATCC 39183, Escherichia coli ATCC 25922, Pseudomonas aeruginosa ATCC 27853, Staphylococcus aureus ATCC 29213, Enterococcus faecalis ATCC 29212, and fungi culture, Candida albicans ATCC 10231) was assessed in triplicate using the serial dilution microplate method; acetone and DMSO were used as solvents. Bacterial cultures were grown in Mueller Hinton broth (Sigma Aldrich, St. Louis, MO, USA) overnight and adjusted to McFarland standard 1 (1 × 10^8 CFU/mL). Then, 100 µL of samples were transferred into the first well of a sterile 96-well microtiter plate, which contained 100 µL of water and a 1:1 serial dilution with sterilized distilled water was carried out. In each well, 100 µL of appropriately adjusted fungal or bacterial cultures were added, and the bacteria were subjected to final concentrations of 250–3.9 μg/mL for pure compounds and 2.5–0.02 mg/mL for crude extracts. Amphotericin-B and Gentamicin (Virbac, Carros, France) served as positive controls for fungi and bacteria, respectively. For sterility, water served as control, while acetone served as a negative control. The microplates were then incubated for 24 h at 37 °C. Following incubation, 40 µL of 0.2 mg/mL p-iodonitrotetrazolium violet (INT, Sigma Aldrich) dissolved in water (hot) was added to the wells before being incubated at 37 °C for another 2 h. In the case of fungi, the INT was added before incubation. The MIC was measured visually as the lowest concentration of the compounds/extracts that inhibited proliferation.

[2] = test system: Escherichia coli ATCC 25922; test: Serial dilution microplate MIC; assay type: cell-based; settings: for MIC: Escherichia coli; for Selectivity index E. coli: in brackets, Vero LC50 vs MIC
Procedure: as §1

[3] = test system: Enterococcus faecalis ATCC 29212; test: Serial dilution microplate MIC; assay type: cell-based; settings: for MIC: Enterococcus faecalis; for Selectivity index E. faecalis: in brackets, Vero LC50 vs MIC
Procedure: as §1

[4] = test system: Salmonella Typhimurium ATCC 39183; test: Serial dilution microplate MIC; assay type: cell-based; settings: for MIC: Salmonella enterica; for Selectivity index S. Typhimurium: in brackets, Vero LC50 vs MIC
Procedure: as §1

[5] = test system: Pseudomonas aeruginosa ATCC 27853; test: Serial dilution microplate MIC; assay type: cell-based; settings: for MIC: Pseudomonas aeruginosa; for Selectivity index P. aeruginosa: in brackets, Vero LC50 vs MIC
Procedure: as §1

[6] = test system: Enterococcus faecium UCLA 192; parameters: method as in PMID 31119085; settings: cited from earlier work
[7] = test system: Stenotrophomonas maltophila DMST 19079; parameters: method as in PMID 31119085; settings: cited from earlier work
[8] = parameters: method as in PMID 22693528; settings: cited from earlier work
in vitro = test: in vitro
Procedure: Cytotoxicity of compounds and extracts was tested against mammalian cells using the MTT assay. MCF-7 cancer cells were grown in a 5% CO2 incubator in Dulbecco’s Modified Eagle’s Medium (DMEM, Highveld Biological, Johannesburg, South Africa) supplemented with 10% fetal calf serum (Adcock-Ingram, Johannesburg, South Africa) and 1% penicillin-streptomycin (10,000 U/mL and 10 mg/mL streptomycin, Sigma Aldrich). In a 5% CO2 incubator, Vero cells were grown in a minimal essential medium (MEM, Highveld Biological, South Africa) supplemented with 5% fetal calf serum (Adcock-Ingram) and 0.1% gentamicin (Virbac). Cell suspensions were obtained from 70–80% confluent monolayer cultures and were plated in 96-well cell culture plates at a density of 1 × 10^4. Plates were incubated in a 5% CO2 incubator for 24 h at 37 °C. The cells were exposed to the extracts or compounds dissolved in the media at different concentrations for 48 h. Positive and negative controls were doxorubicin (Pfizer, New York, NYC, USA) and acetone or DMSO, respectively. After that, the wells were rinsed with phosphate-buffered saline (PBS, Sigma) and 200 µL of fresh medium was poured into the wells. Thirty microlitres (5 mg/mL) of MTT (Sigma) dissolved in PBS was added to each well, and the plates were incubated at 37 °C for 4 h. The medium from the wells was removed, rinsed, and 50 µL of 100% DMSO was added to the wells. At a wavelength of 570 nm, absorbance was measured using a microplate reader (BioTek Synergy, Beijing, China). Each sample concentration was tested in quadruplicate in two repeats (n = 8), and the concentration causing 50% inhibition of cell viability (LC50) was calculated. Selectivity index (SI) values for the extracts/compounds were obtained by dividing cytotoxicity LC50 values of normal (Vero) cells by those of the cancer cells.

[9] = test system: Staphylococcus aureus ATCC 43300; parameters: method as in PMID 31119085; settings: cited from earlier work
Candida albicans = test system: Candida albicans; parameters: method as in PMID 22693528; settings: cited from earlier work
[10] = parameters: method as in PMID 23878606; settings: read-out: EC50 scavenging ABTS; cited from earlier work
[11] = parameters: method as in PMID 23878606; settings: read-out: EC50 scavenging DPPH; cited from earlier work
[12] = test system: Candida albicans ATCC 10231; test: Serial dilution microplate MIC (fungi); assay type: cell-based; settings: for MIC: Candida albicans; for Selectivity index C. albicans: in brackets, Vero LC50 vs MIC
Procedure: as §1

HEK295 = test system: HEK295; parameters: method as in PMID 27357542; settings: cited from earlier work
[13] = test system: Leishmania braziliensis amastigotes; parameters: method as in PMID 32664596; settings: cited from earlier work
Plasmodium falciparum = test system: Plasmodium falciparum; parameters: method as in PMID 32664596; settings: cited from earlier work
MCF-7 tumor cells = test system: MCF-7 tumor cells; parameters: method as in PMID 27357542; settings: 1 µg/mL; cited from earlier work
Caco-2 tumor cells = test system: Caco-2 tumor cells; parameters: method as in PMID 27357542; settings: 5 μg/mL; cited from earlier work
[14] = test system: Botrytis cinerea and Sclerotinia sclerotiorum; parameters: method as in PMID 37570772; settings: cited from earlier work
L. monocytogenes = test system: L. monocytogenes; parameters: method as in PMID 23480526; settings: cited from earlier work
S. aureus = test system: S. aureus; parameters: method as in PMID 23480526; settings: cited from earlier work
P. aeruginosa = test system: P. aeruginosa; parameters: method as in PMID 23480526; settings: cited from earlier work
E. coli = test system: E. coli; parameters: method as in PMID 23480526; settings: cited from earlier work
[15] = test system: one fungal and five bacterial strains; test: Serial dilution microplate MIC, whole panel; assay type: cell-based; settings: isolated compounds, highest concentration 250 µg/mL
Procedure: as §1

[16] = ATCC29213, isolated compounds, Table 2, read-out: Minimum inhibitory concentration (MIC) S. aureus
[17] = ATCC25922, isolated compounds, Table 2, read-out: Minimum inhibitory concentration (MIC) E. coli
[18] = isolated compounds, Table 2, read-out: Minimum inhibitory concentration (MIC) S. Typhimurium

SMILES: COc1cc2ccc(=O)oc2cc1O [Scopoletin, scopoletin]
- MIC ([1]; ATCC29213, 24 h, isolated compounds, Table 2, read-out: Minimum inhibitory concentration (MIC) S. aureus): 250 µg/mL (≈ 1300 µM)
- MIC [1, 16]: 250 µg/mL (≈ 1300 µM)
- Selectivity index S. aureus ([1]; Table 2): > 0.8
- MIC [2, 17]: 62.5 µg/mL (≈ 325 µM)
- Selectivity index E. coli ([2]; Table 2): > 3.2
- Selectivity index E. coli ([2]; Table 2, listed as scopoletin): 3
- MIC ([3]; ATCC29212, 24 h, isolated compounds, Table 2, read-out: Minimum inhibitory concentration (MIC) E. faecalis): 250 µg/mL (≈ 1300 µM)
- MIC ([4]; read-out: Minimum inhibitory concentration (MIC) S. Typhimurium, isolated compounds, Table 2): 125 µg/mL (≈ 650 µM)
- Selectivity index S. Typhimurium ([4]; Table 2): > 1.6
- MIC ([5]; ATCC27853, 24 h, isolated compounds, Table 2, read-out: Minimum inhibitory concentration (MIC) P. aeruginosa): > 250 µg/mL
- Selectivity index P. aeruginosa ([5]; Table 2): < 0.8
- MIC Enterococcus faecium UCLA 192 [6]: 128 µg/mL (≈ 666 µM)
- MIC Stenotrophomonas maltophila DMST 19079 [7]: 256 µg/mL (≈ 1330 µM)
- IC50 DPPH radical [8]: 1.24 µg/mL (≈ 6.45 µM)
- CC50 at 48 h (in vitro): > 200 µg/mL
- MIC Staphylococcus aureus ATCC 43300 [9]: 128 µg/mL (≈ 666 µM)
- Activity against Candida albicans (Candida albicans): ineffective
- EC50 [10]: 191.51 ± 0.01 µM
- EC50 [11]: 647.89 ± 0.07 µM
- MIC ([12]; ATCC10231, 24 h, isolated compounds, Table 2, read-out: Minimum inhibitory concentration (MIC) C. albicans): 250 µg/mL (≈ 1300 µM)
- Selectivity index C. albicans ([12]; Table 2): > 0.8

SMILES: CCCCCCCCCCCCOC(=O)/C=C/c1ccc(O)cc1 [Dodecyl-p-coumarate, dodecyl-p-coumarate]
- Toxic effect on HEK295 (HEK295): minimal toxic effect
- MIC ([1]; ATCC29213, read-out: Minimum inhibitory concentration (MIC) S. aureus): > 250 µg/mL
- Selectivity index S. aureus ([1]; Table 2): < 0.8
- MIC ([2]; ATCC25922, read-out: Minimum inhibitory concentration (MIC) E. coli): > 250 µg/mL
- Selectivity index E. coli ([2]; Table 2): < 0.8
- MIC ([3]; ATCC29212, read-out: Minimum inhibitory concentration (MIC) E. faecalis): 62.5 µg/mL (≈ 188 µM)
- Selectivity index E. faecalis ([3]; Table 2): > 3.2
- MIC [4, 18]: > 250 µg/mL
- Selectivity index S. Typhimurium ([4]; Table 2): < 0.8
- MIC ([5]; ATCC27853, read-out: Minimum inhibitory concentration (MIC) P. aeruginosa): > 250 µg/mL
- Selectivity index P. aeruginosa ([5]; Table 2): < 0.8
- EC50 Leishmania braziliensis amastigotes [13]: 16.34 ± 0.49 µg/mL (≈ 49.1 µM)
- CC50 at 48 h (in vitro): > 200 µg/mL
- EC50 Plasmodium falciparum (Plasmodium falciparum): 81.19 ± 8.54 µg/mL (≈ 244 µM)
- Reduction of viability of MCF-7 tumor cells (MCF-7 tumor cells): at least 23%
- Reduction of viability of Caco-2 tumor cells (Caco-2 tumor cells): ≥ 15%
- Mycelium growth of Botrytis cinerea and Sclerotinia sclerotiorum [14]: inhibition of mycelium growth
- MIC ([12]; ATCC10231, read-out: Minimum inhibitory concentration (MIC) C. albicans): 250 µg/mL (≈ 752 µM)
- Selectivity index C. albicans ([12]; Table 2): > 0.8

SMILES: COc1cc(/C=C/C(=O)O)ccc1O [Ferulic acid, ferulic acid]
- MIC L. monocytogenes (L. monocytogenes): 1250 µg/mL (≈ 6440 µM)
- MIC S. aureus (S. aureus): 1100 µg/mL (≈ 5660 µM)
- MIC P. aeruginosa (P. aeruginosa): 100 µg/mL (≈ 515 µM)
- MIC [1, 16]: 250 µg/mL (≈ 1290 µM)
- Selectivity index S. aureus ([1]; Table 2): > 0.8
- MIC [2, 17]: > 250 µg/mL
- Selectivity index E. coli ([2]; Table 2): < 0.8
- MIC ([3]; ATCC29212, isolated compounds, Table 2, read-out: Minimum inhibitory concentration (MIC) E. faecalis): > 250 µg/mL
- Selectivity index E. faecalis ([3]; Table 2): < 0.8
- MIC [4, 18]: > 250 µg/mL
- Selectivity index S. Typhimurium ([4]; Table 2): < 0.8
- MIC ([5]; ATCC27853, isolated compounds, Table 2, read-out: Minimum inhibitory concentration (MIC) P. aeruginosa): > 250 µg/mL
- Selectivity index P. aeruginosa ([5]; Table 2): < 0.8
- CC50 at 48 h (in vitro): > 200 µg/mL
- MIC E. coli (E. coli): 100 µg/mL (≈ 515 µM)
- MIC ([15]; all tested strains, read-out: MIC against all tested microorganisms): ≥ 250 µg/mL
- MIC against all tested microorganisms [15]: no efficacy
- MIC ([12]; ATCC10231, isolated compounds, Table 2, read-out: Minimum inhibitory concentration (MIC) C. albicans): 250 µg/mL (≈ 1290 µM)
- Selectivity index C. albicans ([12]; Table 2): > 0.8
